| Structure (SMILES) | melting point [°C] |
| --- | --- |
| COc1cc(C)c2nc3cccc(OC)c3nc2c1 | 201 to 202 |
| O=c1ncc(C(F)(F)F)c[nH]1 | 154 |
| COc1cc(OC)c2c(c1)S(=O)(=O)N(COC(=O)c1c(Cl)cccc1Cl)C2=O | 200 to 201 |
| Cc1cc(Oc2c(Cl)cc(C(F)(F)F)cc2Cl)nn1C(=O)NCCBr | 106 to 107 |
| Nc1ncc2ncn(CCC(CO)CO)c2n1 | 154 |
| NC(=O)c1cscc1Br | 108 to 110 |
| Oc1nc2ccc3nccnc3c2nc1O | > 300 |
| CN(C)c1nccc(-c2ccc(-c3ccc(N(c4ccccc4)c4ccccc4)cc3)cc2)n1 | 140 to 141 |
| Cc1ccc(NC(=O)c2ccc3c(c2)C(=O)N(c2c(Cl)cccc2Cl)C3=O)cc1C | 238 to 240 |
| CC(C)(C)n1nnc(N)n1 | 114 to 115 |
| Cc1ccc(-c2c(NS(=O)(=O)c3ccc(C(C)(C)C)cc3)ncnc2OCCOc2ccc(N(C)C)cc2)cc1 | 142 to 145 |
| CC(=O)c1nc(C)c[nH]1 | 113 to 115 |
| COc1ccc(CONCc2ccc(OC)cc2OC)cc1 | 52 to 55 |
| O=C1NCCNc2c1cccc2[N+](=O)[O-] | 191 to 195 |
| CCOC(=O)Nc1cccc(Nc2c3cccc(C)c3nc3c(C(=O)NCCN(C)C)cccc23)c1C | 182 to 183 |
| CCc1c(OCc2ccccc2)nc(OCc2ccccc2)nc1C(C#N)c1cc(C)cc(C#N)c1 (configuration not stated) | 139 to 141 |
| COc1cc(OC)c2c(=O)c3oc4ccc(OC)cc4c3oc2c1 | 262 to 264 |
| Nc1ccc(C(c2ccccc2)(c2ccc(N)cc2)C(F)(F)F)cc1 | 217 to 218 |
| N#Cc1ccc(CBr)c(Cl)c1 | 83 to 85 |
| CCc1c(-c2ccc(O)cc2)c2c(C(=O)N(C)CCN(C)C)cc3cc(OC)cc1n32 | 190 to 200 |

| Structure (SMILES) | melting point [°C] |
| --- | --- |
| CCOCCOc1cc(OC)c(C(CC(=O)Nc2cc(C(N)=O)ccc2C(C)(C)C)CC(C)C)cc1Cl (configuration not stated) | 180 to 181 |
| Cc1cccc(N(c2ccccc2)c2ccc3c(c2)C(CCCO)(CCCO)c2cc(N(c4ccccc4)c4cccc(C)c4)ccc2-3)c1 | 216 to 217 |
| CC(=O)Nc1ccc(-c2ccc(NC(C)=O)cc2I)c(I)c1 | 300 to 301 |
| CC[C@@H](c1ccccc1)N(Cc1ccc(C(=O)OC)cc1)S(=O)(=O)c1ccc(C(F)(F)F)cc1 | 70 to 72 |
| CC(O)c1nn(Cc2ccccc2)c(=O)o1 (configuration not stated) | 70 |
| CCCCc1nn(C(F)(F)F)c(C(=O)O)c1Cc1ccc(C2(C(=O)O)CC=CC2)s1 | 134 to 135 |
| CCC(O)=C1SC(=S)N(c2ccccc2)C1=O | 105 to 111 |
| COc1cc(C(C)=O)ccc1SCCCCl | 53 to 55 |
| CN(C)C(=O)CCCOc1ccc2c(c1)C[C@@H](NC(=O)OC(C)(C)C)CC2 | 97 to 101 |
| O=C(O)Cn1c(=O)c(=O)[nH]c2cc([N+](=O)[O-])c(Cl)cc21 | > 280 |
| COc1cccc(C(=O)N(C)Cc2cccc(-c3ccc(CC4SC(=O)NC4=O)cc3)c2)c1 (configuration not stated) | 173 |
| O=C(Nc1cccnc1)NC(CS)Cc1ccccc1 (single isomer, unassigned; (+)) | 149 |
| COC(=O)CNc1ccc(CCNC(=O)c2ccc(C#N)cc2)cc1 | 161 to 162 |
| COc1ccc(CNc2nc(SC)nc(OC)c2C(=O)O)cc1Cl | 167 to 170 |
| CCOC(=O)C(C(=O)O)=C1SCS1 | 166 to 167 |
| CC1(CSc2ccccc2)COC2(CCCCC2)OO1 (configuration not stated) | 45 to 46 |
| N#Cc1ccc(N2C(=O)N(CCCC(=O)O)C3(CCSCC3)C2=O)cc1C(F)(F)F | 197 to 198 |
| Cc1c(I)ccc2c1C(=O)NS2(=O)=O | 257 to 258 |
| COc1ccc([PH](=O)c2ccc(OC)cc2)cc1 | 126 |
| C[C@H](N[C@@H](CCc1ccccc1)C(=O)O)C(=O)N1C(=O)N(C)C[C@H]1C(=O)O | 240 |

| Structure (SMILES) | melting point [°C] |
| --- | --- |
| COc1cc(Nc2c(C#N)cnc3cc(-c4cccc(NC(C)=O)c4)ccc23)c(Cl)cc1Cl | 262 to 263 |
| CC(C(=O)OC(C)(C)C)c1ccc(N2Cc3ccc(Cl)cc3C2=O)cc1 (configuration not stated) | 169 to 171 |
| NC(=O)c1ccc(OCCNCC(O)COc2ccc(-c3csnn3)cc2)cc1 (configuration not stated) | 173 to 174 |
| Cc1cc(C)c(-c2cn(C)c3c(O)ncnc23)c(C)c1 | 230 to 232 |
| CCCN[C@@H](Cc1ccc(OCCNC(=O)c2ccc(-c3ccccn3)cc2)cc1)C(=O)O | 242 to 244 |
| O=c1[nH]c2cc(Cl)c([N+](=O)[O-])c(Cl)c2[nH]c1=O | 320 to 325 |
| Cc1cc(-c2nc3cccnn3c2-c2ccnc(NC(=O)NC(C)(C)C)c2)ccc1F | 234 to 235 |
| N#Cc1cc(F)c(-n2ncc(=O)[nH]c2=O)cc1F | > 250 |
| O=C1CSCc2cc(Cl)ccc21 | 79.5 to 82 |
| CC(=O)N1CCC(N(C)S(C)(=O)=O)CC1 | 132 |
| COc1ccc(-c2cnnc(-c3ccc(C(F)(F)F)cc3F)c2N)cc1 | 215 to 216 |
| CCCCCCCC(CC(=O)OO)CC(=O)OO | 19 to 22 |
| COC(=O)c1ccc(CNS(C)(=O)=O)cc1N | 120 to 121 |
| CC(C#N)c1nc(O)n[nH]1 (configuration not stated) | 182 to 184 |
| FC(F)(F)CNc1ccc2c(c1)N1CCCN=C1S2 | 187 |
| O=C(O)Cc1cccc(Cc2nc3c(F)c(F)cc(F)c3s2)c1Cl | 156 to 158 |
| CC(n1cncn1)C(O)(Cn1cncn1)c1ccc(F)cc1 (configuration not stated) | 103 to 106 |
| CC(=O)NC(C)Cc1cc2c(cc1CCl)OCO2 (configuration not stated) | 132 to 133 |
| C[C@H](CC#CC(C)(C)O)[C@H]1CCC[C@H]2[C@@H](O)CCC[C@]12C | 134 to 135 |

Further lines, results first:

| melting point [°C] | Structure (SMILES) |
| --- | --- |
| 106 to 108 | CC1(C)C=C(c2ccccn2)c2cc(C#N)ccc2O1 |
| 105 to 106 | CCNc1nc2ccc(COc3cccc(CN4CCCCC4)c3)cc2o1 |
| 117 to 123 | Fc1cccc(OC2CN(C3CCC(c4c[nH]c5cc(F)ccc45)CC3)C2)c1 (configuration not stated) |
| 244 to 247 | O=S1(=O)N=CN(C2CC2)c2c1ccc(Br)c2F |
| 175 to 176 | O=C(Nc1ccc(Oc2ccnc(-n3ccnc3)n2)c2ccccc12)c1cc(F)cc(N2CCCCC2)c1 |
| 133 to 135 | CCc1nnc2ccc(-c3ccccc3)nn12 |
| 160 to 161 | Nc1cc2c(cc1C(=O)c1ccccc1)OCO2 |
| 87 to 89 | ClC1c2ccccc2-c2ccccc21 |
| 73.2 | COc1nc(N)ccc1C(=O)CCC1CCN(CC2CCCCC2)CC1 |
| 157 | CC(C)(CO)NC(=O)c1ccncc1C1=CCCc2ccccc21 |
| 190 to 194 | CCCCc1oc2ccccc2c1C(=O)N(C)Cc1ccc2c(Br)c(OCc3nnn[nH]3)ccc2c1 |
| 142 | CC(C)(C)C(=O)Oc1cc2c(c3ccccc13)Nc1ccccc1S2 |
| > 260 | NC(=O)c1cc2c(Oc3ccc(C(=O)N4CCOCC4)cc3)cncc2s1 |
| 154 | COC(=O)C1Cc2c([nH]c3ccccc23)C(c2ccccc2Cl)N1 (configuration not stated) |
| 146 to 148 | COc1cc(-c2nc3sccn3c2-c2ccnc(NC3CCN(S(=O)(=O)C4CC4)CC3)n2)ccc1F |
| 139 to 140 | CCOC(=O)COc1cc(C(F)(F)F)c2c(=O)c(-c3ccccc3)coc2c1 |
| 118 to 120 | CCOC(=O)C1=C(C)NC(c2cscn2)=NC1c1ccc(F)cc1 (configuration not stated) |
| 192 | O=C(O)CCC(=O)Nc1ccc(C(=O)N2CCCCc3ccccc32)cc1 |
| 103 to 106 | CC(C)(C)OC(=O)Nc1c(F)cccc1OCc1ccccc1 |
| 120 to 122 | CC(=O)Cc1nc2ccccc2c(=O)o1 |
| 156 to 158 | COCCOCCN1C(=O)C2(COc3cc4c(cc32)OCCO4)c2c1ccc1ncsc21 (configuration not stated) |
| 225 to 227 | O=C(O)COc1cccc2c1CCC(n1nc(-c3c(-c4ccccc4)nn4ccccc34)ccc1=O)C2=O (configuration not stated) |

| melting point [°C] | Structure (SMILES) |
| --- | --- |
| 112 to 113 | CCOc1nc2cccc(C(=O)OC)c2n1Cc1ccc(-c2ccccc2C(=O)OC)cc1 |
| 201 to 203 | COc1ccccc1NC(=O)Nc1nc2c(s1)CN(C)CC2 |
| 139 to 140 | CC(C)(C)c1cc(C(c2ccc(C#N)cc2)N2CCCCC2)cc(C(C)(C)C)c1O (configuration not stated) |
| 206 | COc1cccc2c1CC(C(=O)NCCOc1ccc(C(=O)O)cc1)N2S(=O)(=O)c1ccc(-c2ccc(F)cc2F)cc1 (configuration not stated) |
| 220 to 224 | COc1ccccc1C1(N)C(=O)Nc2ccc(Cl)cc21 (configuration not stated) |
| 237 to 239 | COc1c(-c2cc3c(s2)CCCC3O)ccc2c(=O)c(C(=O)O)cn(C3CC3)c12 (configuration not stated) |
| 235 to 238 | O=c1[nH]c2ccccc2n1C1=CCN(C2CCC(c3ccc(F)cc3)(c3ccc(F)cc3)CC2)CC1 |
| 222 to 224 | Cc1[nH]cnc1/C=C/C(=O)c1cc2ccccc2n1C |
| 248 to 250 | O=C(O)c1cnn2c(-c3cccc(C(F)(F)F)c3)ccnc12 |
| 172 to 173 | O=C1c2ccccc2C(O)N1CCN1CCC(c2noc3cc(F)ccc23)CC1 (configuration not stated) |
| 150 to 152 | O=C(O)CCC(=NO)c1ccc(-c2ccccc2F)cc1 |
| 210 to 212 | CCC(C)(C)c1cc(-c2cc(F)cc(C=C3SC(N4CCOCC4)=NC3=O)c2)ccc1O |
| 110 to 112 | CCn1cc(CN(C(=O)C2CCCc3ccc(C)cc32)c2ccc(C(C)C)cc2)cn1 (configuration not stated) |
| 250 to 255 | Cc1ccc(F)c2c1N(CC(=O)Nc1ccccc1F)C(=O)C21COc2cc3c(cc21)CCO3 (configuration not stated) |
| 180 to 182 | Cc1c(CC(=O)O)c2cc(O)ccc2n1C(=O)c1ccc(F)cc1 |
| 156 to 158 | COc1cccc(NC(=O)c2ccccc2[N+](=O)[O-])c1 |
| 147 | CSC(=S)N1CCN(Cc2ccccc2O)CC1 |
| 125 to 126 | CC(=O)NCCc1cccc2ccc(O)cc12 |
| 61 to 62 | O=Cc1cccnc1Oc1ccc(F)cc1 |
| 112 to 113 | Fc1ccc2c(C3CCN(CCC4COc5ccccc5O4)CC3)noc2c1 (configuration not stated) |
| 255 to 256 | O=c1[nH]c(=Cc2ccc(OCc3ccccc3)cn2)c(=O)[nH]c1=Cc1ccc2c(c1)OCO2 |

Reference: a melting point compilation (Tetko et al.; mined from patent text by program, amines drawn as free bases though some values may be those of a salt)
